Experiments:
[1] = molecular target: Serine/threonine-protein kinase PLK1 (Homo sapiens) (UniProt P53350); experiment: Inhibition of Plk1 at 10 uM by HTRF assay
[2] = molecular target: T1, Vascular endothelial growth factor receptor 2 (Homo sapiens, UniProt P35968); experiment: Inhibition of VEGFR2 assessed as blockade of pGAT-biotin phosphorylation in presence of 2 uM ATP by HTRF assay
[3] = molecular target: Vascular endothelial growth factor receptor 1 (Homo sapiens, UniProt P17948); experiment: Inhibition of VEGFR1 assessed as blockade of pGAT-biotin phosphorylation in presence of 2 uM ATP by HTRF assay
Chain of Vascular endothelial growth factor receptor 1 (P17948 whole entry): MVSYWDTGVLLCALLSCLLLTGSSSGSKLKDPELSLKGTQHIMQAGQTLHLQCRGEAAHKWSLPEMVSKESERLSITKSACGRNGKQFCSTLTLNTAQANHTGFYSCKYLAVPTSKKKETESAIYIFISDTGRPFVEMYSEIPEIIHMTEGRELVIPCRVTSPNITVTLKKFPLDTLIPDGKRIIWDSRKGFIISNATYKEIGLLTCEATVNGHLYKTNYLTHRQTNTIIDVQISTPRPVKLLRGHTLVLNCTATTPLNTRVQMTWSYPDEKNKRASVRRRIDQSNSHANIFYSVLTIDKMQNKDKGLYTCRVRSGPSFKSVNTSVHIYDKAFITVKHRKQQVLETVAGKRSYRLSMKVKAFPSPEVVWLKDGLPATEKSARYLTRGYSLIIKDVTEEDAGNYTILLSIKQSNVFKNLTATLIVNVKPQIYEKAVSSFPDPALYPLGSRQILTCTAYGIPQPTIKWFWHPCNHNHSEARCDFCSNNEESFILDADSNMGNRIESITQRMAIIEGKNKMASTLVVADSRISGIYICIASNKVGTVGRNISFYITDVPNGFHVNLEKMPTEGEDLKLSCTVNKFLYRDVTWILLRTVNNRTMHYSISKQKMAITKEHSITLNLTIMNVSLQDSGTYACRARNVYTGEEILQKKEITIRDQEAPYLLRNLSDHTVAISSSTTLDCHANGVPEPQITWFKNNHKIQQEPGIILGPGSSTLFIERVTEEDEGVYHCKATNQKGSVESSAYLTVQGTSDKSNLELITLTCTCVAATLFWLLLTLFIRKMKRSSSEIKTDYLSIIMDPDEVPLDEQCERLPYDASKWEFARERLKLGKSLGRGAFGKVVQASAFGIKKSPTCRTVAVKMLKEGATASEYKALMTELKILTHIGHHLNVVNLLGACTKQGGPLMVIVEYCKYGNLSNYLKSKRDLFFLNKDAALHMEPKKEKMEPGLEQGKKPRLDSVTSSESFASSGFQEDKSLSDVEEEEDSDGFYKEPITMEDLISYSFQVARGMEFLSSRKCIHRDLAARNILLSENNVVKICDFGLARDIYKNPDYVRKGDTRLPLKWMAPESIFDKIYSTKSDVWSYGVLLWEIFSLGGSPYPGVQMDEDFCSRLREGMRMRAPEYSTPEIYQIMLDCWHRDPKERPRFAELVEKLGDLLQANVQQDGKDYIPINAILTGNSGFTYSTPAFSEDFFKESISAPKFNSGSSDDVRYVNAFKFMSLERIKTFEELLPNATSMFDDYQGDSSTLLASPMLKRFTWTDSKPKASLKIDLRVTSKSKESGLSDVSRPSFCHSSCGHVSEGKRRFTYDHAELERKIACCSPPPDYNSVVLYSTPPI

[4] = molecular target: T1, Vascular endothelial growth factor receptor 2; experiment: Inhibition of VEGFR2 expressed in HEK293 cells assessed as inhibition of receptor phosphorylation by ELISA; assay type: cell-based
[5] = molecular target: Insulin-like growth factor 1 receptor (Homo sapiens) (UniProt P08069); experiment: Inhibition of IGF1R at 10 uM by HTRF assay
[6] = molecular target: Insulin receptor (Homo sapiens) (UniProt P06213); experiment: Inhibition of InR at 10 uM by HTRF assay
[7] = molecular target: Fibroblast growth factor receptor 1 (Homo sapiens) (UniProt P11362); experiment: Inhibition of FGFR1 at 10 uM by HTRF assay
[8] = molecular target: Receptor-type tyrosine-protein kinase FLT3 (Homo sapiens) (UniProt P36888); experiment: Inhibition of Flt3 at 10 uM by HTRF assay
[9] = molecular target: Epidermal growth factor receptor (Homo sapiens) (UniProt P00533); experiment: Inhibition of EGFR at 10 uM by HTRF assay
[10] = molecular target: Receptor tyrosine-protein kinase erbB-2 (Homo sapiens) (UniProt P04626); experiment: Inhibition of ErbB2 at 10 uM by HTRF assay
[11] = molecular target: Hepatocyte growth factor receptor (Homo sapiens) (UniProt P08581); experiment: Inhibition of cMET at 10 uM by HTRF assay
[12] = molecular target: Macrophage-stimulating protein receptor (Homo sapiens) (UniProt Q04912); experiment: Inhibition of Ron at 10 uM by HTRF assay
[13] = Inhibition of PKA at 10 uM by HTRF assay
[14] = molecular target: Glycogen synthase kinase-3 beta (Homo sapiens) (UniProt P49841); experiment: Inhibition of GSK3-beta at 10 uM by HTRF assay
[15] = molecular target: Bcr/Abl fusion protein (Homo sapiens) (UniProt P00519+P11274); experiment: Inhibition of bcr-Abl at 10 uM by HTRF assay; assay type: protein assay
Chain of Bcr/Abl fusion protein (Homo sapiens) (P00519 whole entry, looked up, the tested form may be a part): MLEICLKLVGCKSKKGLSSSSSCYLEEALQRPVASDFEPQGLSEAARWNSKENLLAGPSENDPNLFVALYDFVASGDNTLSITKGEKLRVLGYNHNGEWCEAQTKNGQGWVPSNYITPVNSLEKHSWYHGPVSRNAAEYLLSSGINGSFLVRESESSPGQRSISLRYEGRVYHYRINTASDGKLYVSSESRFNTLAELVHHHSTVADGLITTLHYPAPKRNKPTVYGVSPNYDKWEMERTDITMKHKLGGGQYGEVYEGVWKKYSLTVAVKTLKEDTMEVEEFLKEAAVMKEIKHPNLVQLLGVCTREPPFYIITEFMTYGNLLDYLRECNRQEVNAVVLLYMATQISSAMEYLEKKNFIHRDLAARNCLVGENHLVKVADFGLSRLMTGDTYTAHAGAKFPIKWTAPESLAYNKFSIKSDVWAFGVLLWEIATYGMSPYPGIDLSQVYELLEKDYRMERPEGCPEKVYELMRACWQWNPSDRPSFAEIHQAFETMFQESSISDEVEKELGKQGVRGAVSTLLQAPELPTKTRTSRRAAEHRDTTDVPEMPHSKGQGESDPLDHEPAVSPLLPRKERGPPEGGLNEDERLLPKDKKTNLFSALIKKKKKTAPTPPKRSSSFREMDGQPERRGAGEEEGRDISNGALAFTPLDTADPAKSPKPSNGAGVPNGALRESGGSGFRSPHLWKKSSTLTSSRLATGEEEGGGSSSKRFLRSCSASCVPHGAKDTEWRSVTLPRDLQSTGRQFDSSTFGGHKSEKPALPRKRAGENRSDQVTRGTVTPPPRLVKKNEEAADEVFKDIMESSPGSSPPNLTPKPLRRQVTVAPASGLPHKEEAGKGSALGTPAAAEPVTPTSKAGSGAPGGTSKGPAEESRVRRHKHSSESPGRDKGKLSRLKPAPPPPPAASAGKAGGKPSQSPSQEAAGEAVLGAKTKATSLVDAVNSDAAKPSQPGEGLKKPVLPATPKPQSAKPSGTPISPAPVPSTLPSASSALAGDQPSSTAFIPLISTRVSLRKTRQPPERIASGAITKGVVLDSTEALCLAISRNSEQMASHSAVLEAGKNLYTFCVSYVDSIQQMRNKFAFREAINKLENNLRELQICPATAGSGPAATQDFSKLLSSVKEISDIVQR
Chain of Bcr/Abl fusion protein (Homo sapiens) (P11274 whole entry, looked up, the tested form may be a part): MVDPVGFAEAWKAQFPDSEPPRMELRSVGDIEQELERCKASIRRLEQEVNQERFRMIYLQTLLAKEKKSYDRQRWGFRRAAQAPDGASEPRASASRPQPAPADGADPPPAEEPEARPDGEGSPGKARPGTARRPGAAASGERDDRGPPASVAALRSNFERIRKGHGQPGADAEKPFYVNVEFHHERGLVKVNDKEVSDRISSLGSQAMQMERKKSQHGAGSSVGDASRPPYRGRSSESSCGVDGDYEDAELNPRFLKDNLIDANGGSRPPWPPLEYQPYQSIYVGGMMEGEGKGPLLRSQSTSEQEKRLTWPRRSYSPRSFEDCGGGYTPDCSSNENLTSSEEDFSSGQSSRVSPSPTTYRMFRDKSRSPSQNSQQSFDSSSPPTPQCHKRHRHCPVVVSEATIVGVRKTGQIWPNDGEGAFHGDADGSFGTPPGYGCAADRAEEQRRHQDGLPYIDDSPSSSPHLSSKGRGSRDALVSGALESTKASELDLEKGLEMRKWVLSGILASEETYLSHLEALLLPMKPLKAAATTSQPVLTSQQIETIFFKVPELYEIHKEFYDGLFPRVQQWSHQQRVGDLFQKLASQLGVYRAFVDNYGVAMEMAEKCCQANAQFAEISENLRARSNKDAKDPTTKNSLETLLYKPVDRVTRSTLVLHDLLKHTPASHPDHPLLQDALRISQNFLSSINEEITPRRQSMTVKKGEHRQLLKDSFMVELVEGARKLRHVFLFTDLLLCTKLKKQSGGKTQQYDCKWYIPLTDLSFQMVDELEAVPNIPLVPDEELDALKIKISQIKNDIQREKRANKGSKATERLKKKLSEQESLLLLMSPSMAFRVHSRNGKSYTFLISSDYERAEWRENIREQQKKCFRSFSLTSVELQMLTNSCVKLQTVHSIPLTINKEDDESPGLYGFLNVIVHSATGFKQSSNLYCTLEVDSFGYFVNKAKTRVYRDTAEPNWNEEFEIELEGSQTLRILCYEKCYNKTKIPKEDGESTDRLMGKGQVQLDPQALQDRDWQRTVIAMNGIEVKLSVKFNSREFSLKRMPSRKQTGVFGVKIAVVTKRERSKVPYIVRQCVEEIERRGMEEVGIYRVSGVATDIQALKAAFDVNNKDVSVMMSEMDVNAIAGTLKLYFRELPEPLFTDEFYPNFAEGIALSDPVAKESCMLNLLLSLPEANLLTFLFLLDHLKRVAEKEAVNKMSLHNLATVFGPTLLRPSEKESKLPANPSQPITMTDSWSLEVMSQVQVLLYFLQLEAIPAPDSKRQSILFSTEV

[16] = molecular target: Cyclin-dependent kinase 1 (Homo sapiens) (UniProt P06493); experiment: Inhibition of CDK1 at 10 uM by HTRF assay
Chain of Cyclin-dependent kinase 1 (Homo sapiens) (P06493 whole entry, looked up): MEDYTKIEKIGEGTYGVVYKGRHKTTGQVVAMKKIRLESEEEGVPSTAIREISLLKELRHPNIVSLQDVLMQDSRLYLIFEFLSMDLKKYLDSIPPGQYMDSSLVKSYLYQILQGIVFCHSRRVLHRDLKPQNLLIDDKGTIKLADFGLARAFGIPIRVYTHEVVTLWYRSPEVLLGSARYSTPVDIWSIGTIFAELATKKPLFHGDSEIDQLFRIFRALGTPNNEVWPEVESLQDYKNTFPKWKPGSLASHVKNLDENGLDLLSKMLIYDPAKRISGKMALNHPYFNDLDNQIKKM

[17] = molecular target: Cyclin-dependent kinase 2 (Homo sapiens) (UniProt P24941); experiment: Inhibition of CDK2 at 10 uM by HTRF assay
[18] = molecular target: Proto-oncogene tyrosine-protein kinase Src (Homo sapiens) (UniProt P12931); experiment: Inhibition of Src at 10 uM by HTRF assay
Chain of Proto-oncogene tyrosine-protein kinase Src (Homo sapiens) (P12931 2-536 limits assumed): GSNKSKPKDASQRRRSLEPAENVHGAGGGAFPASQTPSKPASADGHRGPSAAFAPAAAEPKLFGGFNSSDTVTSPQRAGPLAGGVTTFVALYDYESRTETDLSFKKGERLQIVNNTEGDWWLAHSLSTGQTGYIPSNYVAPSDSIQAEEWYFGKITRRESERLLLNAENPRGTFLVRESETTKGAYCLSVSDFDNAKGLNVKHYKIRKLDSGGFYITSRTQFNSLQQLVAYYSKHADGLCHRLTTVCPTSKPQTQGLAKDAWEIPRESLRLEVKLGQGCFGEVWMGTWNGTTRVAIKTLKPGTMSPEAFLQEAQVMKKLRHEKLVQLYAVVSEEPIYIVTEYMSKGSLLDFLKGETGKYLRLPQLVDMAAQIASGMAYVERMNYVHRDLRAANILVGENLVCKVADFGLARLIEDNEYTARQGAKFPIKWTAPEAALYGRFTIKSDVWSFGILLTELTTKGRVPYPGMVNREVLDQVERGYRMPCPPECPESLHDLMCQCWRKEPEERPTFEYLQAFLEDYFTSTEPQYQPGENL

[19] = molecular target: T2, Aurora kinase A (Homo sapiens) (UniProt O14965); experiment: Inhibition of Aurora A at 10 uM by HTRF assay
T2 sequence (whole entry): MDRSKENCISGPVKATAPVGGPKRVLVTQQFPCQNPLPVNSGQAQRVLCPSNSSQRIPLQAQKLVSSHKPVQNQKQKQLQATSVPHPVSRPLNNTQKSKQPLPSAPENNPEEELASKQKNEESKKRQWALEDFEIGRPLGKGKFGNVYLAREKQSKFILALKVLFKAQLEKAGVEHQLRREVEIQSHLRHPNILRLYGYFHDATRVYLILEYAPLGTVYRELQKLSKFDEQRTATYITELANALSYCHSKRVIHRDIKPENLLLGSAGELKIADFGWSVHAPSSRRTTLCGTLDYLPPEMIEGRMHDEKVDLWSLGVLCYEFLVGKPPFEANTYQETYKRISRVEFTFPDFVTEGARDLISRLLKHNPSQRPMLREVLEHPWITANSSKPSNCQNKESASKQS

[20] = molecular target: Aurora kinase B (Homo sapiens) (UniProt Q96GD4); experiment: Inhibition of Aurora B at 10 uM by HTRF assay
Chain of Aurora kinase B (Homo sapiens) (Q96GD4 whole entry): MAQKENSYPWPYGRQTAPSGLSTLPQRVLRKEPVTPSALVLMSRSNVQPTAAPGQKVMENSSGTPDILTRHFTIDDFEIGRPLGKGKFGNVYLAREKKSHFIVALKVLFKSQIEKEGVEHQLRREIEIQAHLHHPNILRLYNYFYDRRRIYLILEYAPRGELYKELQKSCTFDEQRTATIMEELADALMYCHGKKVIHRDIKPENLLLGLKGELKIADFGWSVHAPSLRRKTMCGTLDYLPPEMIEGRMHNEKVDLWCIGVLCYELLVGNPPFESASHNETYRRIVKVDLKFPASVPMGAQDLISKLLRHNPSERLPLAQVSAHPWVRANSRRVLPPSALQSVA

[21] = Inhibition of Bcr-Abl T315 mutant at 10 uM by HTRF assay
[22] = Intrinsic permeability across human Caco-2 cells

Row | inhibition [1] [%] | IC50 [2] [µM] | IC50 [3] [µM] | IC50 [4] [µM] | inhibition [5] [%] | inhibition [6] [%] | inhibition [7] [%] | inhibition [8] [%] | inhibition [9] [%] | inhibition [10] [%] | inhibition [11] [%] | inhibition [12] [%] | inhibition [13] [%] | inhibition [14] [%] | inhibition [15] [%] | inhibition [16] [%] | inhibition [17] [%] | inhibition [18] [%] | inhibition [19] [%] | inhibition [21] [%] | Compound | also measured
1 | < 30 | 0.44 | 0.38 | 0.77 | < 30 | < 30 | < 30 | < 30 | < 30 | < 30 | < 30 | < 30 | < 30 | < 30 | < 30 | < 30 | < 30 | < 30 | < 30 | < 30 | O=C(Nc1ccc2ccccc2n1)c1nscc1NCc1ccncc1 | inhibition [20]: < 30%
2 | < 30 | 0.027 | 0.055 | 0.21 | < 30 | < 30 | < 30 | < 30 | < 30 | < 30 | < 30 | < 30 | < 30 | < 30 | < 30 | < 30 | < 30 | < 30 | < 30 | < 30 | O=C(Nc1cccc(Br)c1)c1nscc1NCc1ccncc1 | inhibition [20]: < 30%
3 | < 30 | 0.67 | 0.75 | 1.11 | < 30 | < 30 | < 30 | < 30 | < 30 | < 30 | < 30 | < 30 | < 30 | < 30 | < 30 | < 30 | < 30 | < 30 | < 30 | < 30 | O=C(Nc1ccc(Cl)c(Cl)c1)c1nscc1NCc1ccncc1 | inhibition [20]: < 30%
4 | < 30 | 0.65 | 0.7 | 0.79 | < 30 | < 30 | < 30 | < 30 | < 30 | < 30 | < 30 | < 30 | < 30 | < 30 | < 30 | < 30 | < 30 | < 30 | < 30 | < 30 | O=C(NCc1ccc2c(c1)OCO2)c1nscc1NCc1ccncc1 | inhibition [20]: < 30%
5 | < 30 | 0.89 | 1.8 | 2.05 | < 30 | < 30 | < 30 | < 30 | < 30 | < 30 | < 30 | < 30 | < 30 | < 30 | < 30 | < 30 | < 30 | < 30 | < 30 | < 30 | O=C(Nc1ccc(C(F)(F)F)c(Cl)c1)c1nscc1NCc1ccncc1 | inhibition [20]: < 30%
6 | < 30 | > 10 | > 10 | > 10 | < 30 | < 30 | < 30 | < 30 | < 30 | < 30 | < 30 | < 30 | < 30 | < 30 | < 30 | < 30 | < 30 | < 30 | < 30 | < 30 | O=C(Nc1cccc(C(F)(F)F)c1)c1nscc1NCCc1ccc2c(c1)OCO2 | inhibition [20]: < 30%
7 |  |  |  |  | < 30 | < 30 | < 30 | < 30 | < 30 | < 30 | < 30 | < 30 | < 30 | < 30 | < 30 | < 30 | < 30 | < 30 |  | < 30 | CC(C)(C)c1cccc(NC(=O)c2nscc2NCc2ccncc2)c1 | Papp [22]: 5.58 ×10⁻⁶ cm/s
8 | < 30 | > 10 | > 10 | > 10 | < 30 | < 30 | < 30 | < 30 | < 30 | < 30 | < 30 | < 30 | < 30 | < 30 | < 30 | < 30 | < 30 | < 30 | < 30 | < 30 | O=C(Nc1cccc(Br)c1)c1nscc1NCCc1ccc2c(c1)OCO2 | inhibition [20]: < 30%
9 |  |  |  |  | < 30 | < 30 | < 30 | < 30 | < 30 | < 30 | < 30 | < 30 | < 30 | < 30 | < 30 | < 30 | < 30 | < 30 |  | < 30 | O=C(Nc1cccc(C(F)(F)F)c1)c1nscc1NCc1ccnc2ccccc12 | Papp [22]: 2.72 ×10⁻⁶ cm/s
10 | < 30 | > 10 | > 10 | > 10 | < 30 | < 30 | < 30 | < 30 | < 30 | < 30 | < 30 | < 30 | < 30 | < 30 | < 30 | < 30 | < 30 | < 30 | < 30 | < 30 | O=C(Nc1cccc(C(F)(F)F)c1)c1nscc1NCc1ccccn1 | inhibition [20]: < 30%
11 | < 30 | > 10 | > 10 | > 10 | < 30 | < 30 | < 30 | < 30 | < 30 | < 30 | < 30 | < 30 | < 30 | < 30 | < 30 | < 30 | < 30 | < 30 | < 30 | < 30 | O=C(Nc1cccc(Br)c1)c1nscc1NCc1ccc2ccccc2n1 | inhibition [20]: < 30%
12 | < 30 | 0.23 | 0.98 | 0.53 | < 30 | < 30 | < 30 | < 30 | < 30 | < 30 | < 30 | < 30 | < 30 | < 30 | < 30 | < 30 | < 30 | < 30 | < 30 | < 30 | O=C(Nc1ccc(Cl)c(C(F)(F)F)c1)c1nscc1NCc1ccncc1 | inhibition [20]: < 30%

Reference: ChEMBL document CHEMBL1136839, “3,4-Disubstituted isothiazoles: novel potent inhibitors of VEGF receptors 1 and 2” (Bioorg Med Chem Lett, 2009)
